≈ marks a conversion by molar mass, not a printed value.
Assays:
Type in all cases: cell-based
Staph. Aureus = test: in vitro antibacterial activity (MIC), Staph. Aureus; conditions: Staphylococcus aureus
Description: (§1) The MIC is expressed as μg/ml.

Staph. Aureus Tour = test: in vitro antibacterial activity (MIC), Staph. Aureus Tour; conditions: Staphylococcus aureus
Description: as §1

Strept. haemolyticus = test: in vitro antibacterial activity (MIC), Strept. haemolyticus
Description: as §1

Strept. faecalis = test: in vitro antibacterial activity (MIC), Strept. faecalis; conditions: Enterococcus faecalis
Description: as §1

Strept. pneumoniae = test: in vitro antibacterial activity (MIC), Strept. pneumoniae; conditions: Streptococcus pneumoniae
Description: as §1

Proteus vulgaris = test: in vitro antibacterial activity (MIC), Proteus vulgaris
Description: as §1

Escherichia coli = test: in vitro antibacterial activity (MIC), Escherichia coli
Description: as §1

Kleb. pneumoniae = test: in vitro antibacterial activity (MIC), Kleb. pneumoniae; conditions: Klebsiella pneumoniae
Description: as §1

Pseud. aeruginosa = test: in vitro antibacterial activity (MIC), Pseud. aeruginosa; conditions: Pseudomonas aeruginosa
Description: as §1

Myc. Tub. H37 Rv = test: in vitro antibacterial activity (MIC), Myc. Tub. H37 Rv

SMILES | MIC (Staph. Aureus) | MIC (Staph. Aureus Tour) | MIC (Strept. haemolyticus) | MIC (Strept. faecalis) | MIC (Strept. pneumoniae) | MIC (Proteus vulgaris) | MIC (Escherichia coli) | MIC (Kleb. pneumoniae) | MIC (Pseud. aeruginosa) | MIC (Myc. Tub. H37 Rv)
CCc1nc2c(s1)c1c(O)c3c(O)c(C)c4c(c32)C(=O)C(C)(OC=CC(OC)C(C)C(OC(C)=O)C(C)C(O)C(C)C(O)C(C)C=CC=C(C)C(=O)N1)O4 (stereo not shown) [Example 1, 4-Deoxy-2'-ethyl-thiazolo[5,4-c]rifamycin SV] | 0.0004 µg/mL (≈ 0.000522 µM) | 0.00078 µg/mL (≈ 0.00102 µM) | 0.012 µg/mL (≈ 0.0156 µM) | 0.0062 µg/mL (≈ 0.00808 µM) | 0.0062 µg/mL (≈ 0.00808 µM) | 6.25 µg/mL (≈ 8.15 µM) | 12.5 µg/mL (≈ 16.3 µM) | 25 µg/mL (≈ 32.6 µM) | 12.5 µg/mL (≈ 16.3 µM) | 0.31 µg/mL (≈ 0.404 µM)
COC1C=COC2(C)Oc3c(C)c(O)c4c(O)c(c5sc(C)nc5c4c3C2=O)NC(=O)C(C)=CC=CC(C)C(O)C(C)C(O)C(C)C(OC(C)=O)C1C (stereo not shown) [Example 2, 4-Deoxy-2'-methyl-thiazolo[5,4-c]rifamycin SV] | 0.00078 µg/mL (≈ 0.00104 µM) | 0.0031 µg/mL (≈ 0.00412 µM) | 0.0031 µg/mL (≈ 0.00412 µM) | 0.0031 µg/mL (≈ 0.00412 µM) | 0.0062 µg/mL (≈ 0.00824 µM) | 1.56 µg/mL (≈ 2.07 µM) | 12.5 µg/mL (≈ 16.6 µM) | 25 µg/mL (≈ 33.2 µM) | 25 µg/mL (≈ 33.2 µM) | 0.62 µg/mL (≈ 0.824 µM)
CCCc1nc2c(s1)c1c(O)c3c(O)c(C)c4c(c32)C(=O)C(C)(OC=CC(OC)C(C)C(OC(C)=O)C(C)C(O)C(C)C(O)C(C)C=CC=C(C)C(=O)N1)O4 (stereo not shown) [Example 3, 4-Deoxy-2'-propyl-thiazolo[5,4-c]rifamycin SV] | 0.00078 µg/mL (≈ 0.000999 µM) | 0.00156 µg/mL (≈ 0.002 µM) | 0.0031 µg/mL (≈ 0.00397 µM) | 0.00156 µg/mL (≈ 0.002 µM) | 0.00078 µg/mL (≈ 0.000999 µM) | 3.12 µg/mL (≈ 4 µM) | 12.5 µg/mL (≈ 16 µM) | 25 µg/mL (≈ 32 µM) | 12.5 µg/mL (≈ 16 µM) | 0.62 µg/mL (≈ 0.794 µM)
COC1C=COC2(C)Oc3c(C)c(O)c4c(O)c(c5sc(C(C)C)nc5c4c3C2=O)NC(=O)C(C)=CC=CC(C)C(O)C(C)C(O)C(C)C(OC(C)=O)C1C (stereo not shown) [Example 4, 4-Deoxy-2'-isopropyl-thiazolo[5,4-c]rifamycin SV] | 0.00078 µg/mL (≈ 0.000999 µM) | 0.00156 µg/mL (≈ 0.002 µM) | 0.012 µg/mL (≈ 0.0154 µM) | 0.012 µg/mL (≈ 0.0154 µM) | 0.012 µg/mL (≈ 0.0154 µM) | 6.25 µg/mL (≈ 8 µM) | 12.5 µg/mL (≈ 16 µM) | 25 µg/mL (≈ 32 µM) | 12.5 µg/mL (≈ 16 µM) | 0.31 µg/mL (≈ 0.397 µM)
COC1C=COC2(C)Oc3c(C)c(O)c4c(O)c(c5sc(CC(C)C)nc5c4c3C2=O)NC(=O)C(C)=CC=CC(C)C(O)C(C)C(O)C(C)C(OC(C)=O)C1C (stereo not shown) [Example 5, 4-Deoxy-2'-isobutyl-thiazolo[5,4-c]rifamycin SV] | 0.00078 µg/mL (≈ 0.000981 µM) | 0.001 µg/mL (≈ 0.00126 µM) | 0.001 µg/mL (≈ 0.00126 µM) | 0.0062 µg/mL (≈ 0.0078 µM) | 0.0062 µg/mL (≈ 0.0078 µM) | 3.12 µg/mL (≈ 3.92 µM) | 12.5 µg/mL (≈ 15.7 µM) | 50 µg/mL (≈ 62.9 µM) | 12.5 µg/mL (≈ 15.7 µM) | 0.15 µg/mL (≈ 0.189 µM)
CCCCCCc1nc2c(s1)c1c(O)c3c(O)c(C)c4c(c32)C(=O)C(C)(OC=CC(OC)C(C)C(OC(C)=O)C(C)C(O)C(C)C(O)C(C)C=CC=C(C)C(=O)N1)O4 (stereo not shown) [Example 6, 4-Deoxy-2'-hexyl-thiazolo[5,4-c]rifamycin SV] | 0.0012 µg/mL (≈ 0.00146 µM) | 0.0031 µg/mL (≈ 0.00377 µM) | 0.012 µg/mL (≈ 0.0146 µM) | 0.012 µg/mL (≈ 0.0146 µM) | 0.012 µg/mL (≈ 0.0146 µM) | 3.12 µg/mL (≈ 3.79 µM) | 12.5 µg/mL (≈ 15.2 µM) | 25 µg/mL (≈ 30.4 µM) | 12.5 µg/mL (≈ 15.2 µM) | 1.2 µg/mL (≈ 1.46 µM)
COC1C=COC2(C)Oc3c(C)c(O)c4c(O)c(c5scnc5c4c3C2=O)NC(=O)C(C)=CC=CC(C)C(O)C(C)C(O)C(C)C(O)C1C (stereo not shown) [Example 8, 25-Desacetyl-4-deoxy-thiazolo[5,4-c]rifamycin SV] | 0.02 µg/mL (≈ 0.0287 µM) | 0.1 µg/mL (≈ 0.144 µM) | 0.1 µg/mL (≈ 0.144 µM) | 0.4 µg/mL (≈ 0.574 µM) | 0.1 µg/mL (≈ 0.144 µM) | 0.78 µg/mL (≈ 1.12 µM) | 6.25 µg/mL (≈ 8.97 µM) | 12.5 µg/mL (≈ 17.9 µM) | 12.5 µg/mL (≈ 17.9 µM) | 0.6 µg/mL (≈ 0.861 µM)

— patent US4169834A, “Rifamycin derivatives” (Gruppo Lepetit S.p.A., priority 1977, dated 1979)
